In patent publication US7452997B2 (priority 2004, dated 2008):

Assays:
human CB1 receptor = biological target: T1, human CB1 receptor (Homo sapiens, UniProt P21554); experiment: biochemical; type: binding
T1 construct: expressed in transfected cells; host or cells: SK-N-MC cells, stably transfected with pcDNA3 CB-1 (human); semi-purified membrane pellet
How it was run: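 Radioligand binding was run at 30° C for 90 minutes, pH 7.5 Tris buffer containing 0.5 mg/mL fatty acid free BSA, on semi-purified membranes of stably transfected SK-N-MC cells. Filter-bound radioactivity was scintillation counted, with IC50 obtained by linear regression across compound concentrations.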

human CB2 receptor = human CB2 receptor (Homo sapiens, UniProt P34972); experiment: Binding assay, cannabinoid CB2 receptor ([3H]-CP-55,940 displacement); conditions: Cannabinoid CB2 Receptor Binding IC50, human CB2 receptor, SK-N-MC cell membranes, radioligand CP-55,940 0.2 nM
Chain of human CB2 receptor (P34972 whole entry): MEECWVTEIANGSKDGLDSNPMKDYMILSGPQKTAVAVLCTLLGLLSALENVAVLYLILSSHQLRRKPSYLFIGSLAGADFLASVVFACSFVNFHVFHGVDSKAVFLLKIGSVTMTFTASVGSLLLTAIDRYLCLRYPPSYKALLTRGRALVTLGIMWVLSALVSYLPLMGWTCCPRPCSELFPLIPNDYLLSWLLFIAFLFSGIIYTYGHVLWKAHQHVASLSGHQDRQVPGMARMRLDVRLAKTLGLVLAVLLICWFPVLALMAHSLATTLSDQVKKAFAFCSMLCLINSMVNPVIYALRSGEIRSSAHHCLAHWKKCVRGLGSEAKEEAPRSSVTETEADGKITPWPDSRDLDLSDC
How it was run: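 Displacement of [3H]-CP-55,940 (0.2 nM) was measured over 90 min at 30 °C (pH 7.5 Tris/MgCl2/EDTA buffer with BSA), using semi-purified membranes of human CB2-transfected SK-N-MC cells. Bound counts collected on GF/C filters, 10 uM WIN 55,212 as nonspecific control; IC50 from varied concentrations.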

T1 sequence (P21554 whole entry): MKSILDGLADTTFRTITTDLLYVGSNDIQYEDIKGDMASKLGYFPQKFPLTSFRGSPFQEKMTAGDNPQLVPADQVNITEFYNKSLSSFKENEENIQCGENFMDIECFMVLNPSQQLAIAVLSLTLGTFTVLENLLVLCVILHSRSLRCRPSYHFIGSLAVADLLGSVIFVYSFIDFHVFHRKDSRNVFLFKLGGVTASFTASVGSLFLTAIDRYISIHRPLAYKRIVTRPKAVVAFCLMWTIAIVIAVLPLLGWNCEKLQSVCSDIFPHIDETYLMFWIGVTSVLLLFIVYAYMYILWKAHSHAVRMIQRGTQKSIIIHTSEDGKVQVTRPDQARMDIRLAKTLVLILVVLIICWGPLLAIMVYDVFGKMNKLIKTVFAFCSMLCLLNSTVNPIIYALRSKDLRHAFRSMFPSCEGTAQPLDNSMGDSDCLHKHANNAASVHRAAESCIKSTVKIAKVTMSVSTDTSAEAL

Row | SMILES | IC50 (human CB1 receptor) [nM] | IC50 (human CB2 receptor) [nM]
1 | O=C(NCC12CC3CC(CC(C3)C1)C2)c1c2c(nn1-c1ccc(Cl)cc1Cl)CCCC2 [compound 142] | 600 | 400
2 | CCOC(=O)C1CCc2c(C(=O)NC3C4CC5CC(C4)CC3C5)nn(C3CCCCC3)c2C1 (stereo not drawn) [compound 68] | 463 | 57
3 | C[C@@H]1[C@@H](NC(=O)c2nn(C3CCCCC3)c3c2CCCC3)C[C@H]2C[C@@H]1C2(C)C [compound 216] | 2800 | 70
4 | COC(=O)C(Cc1ccc(O)c(O)c1)NC(=O)c1nn(Cc2ccccc2)c2c1CCCC2 (stereo not drawn) [compound 82] | 700 | 200
5 | CN(C)C(=O)NC1CCc2c(c(C(=O)NC3C4CC5CC(C4)CC3C5)nn2C2CCCCC2)C1 (stereo not drawn) [Cpd 89, 1-cyclohexyl-5-(3,3-dimethyl-ureido)-4,5,6,7-tetrahydro-1H-indazole-3-carboxylic acid adamantan-2-ylamide] | 3700 | 1.4
6 | C[C@@H](NC(=O)c1nn(Cc2ccccc2)c2c1CCCC2)C1CCCCC1 [compound 198] | 100 | 5.7
7 | CC(NC(=O)c1nn(-c2ccc(F)cc2)c2c1CCCC2CCc1ccccc1)C12CC3CC(CC(C3)C1)C2 (stereo not drawn) [compound 153] | 1390 | 60
8 | CCOC(=O)C1CCCc2c1c(C(=O)NC1C3CC4CC(C3)CC1C4)nn2C1CCCCC1 (stereo not drawn) [compound 71] | 530 | 500
9 | COC(=O)C(Cc1ccc(OCc2ccccc2)cc1)NC(=O)c1nn(Cc2ccccc2)c2c1CCCC2 (stereo not drawn) [compound 80] | 230 | 170
10 | CCOC(=O)[C@H]1C2CCC(C2)[C@H]1NC(=O)c1nn(CC2CCCCC2)c2c1CCCC2 (stereo partly drawn) [compound 124] | 7 | 16
11 | CCOC[C@H]1C2CCC(C2)[C@H]1NC(=O)c1nn(C2CCCCC2)c2c1CCCC2 (stereo partly drawn) [compound 107] | 910 | 1400
12 | CC1CCCCC1NC(=O)c1nn(C2CCCCC2)c2c1CCCC2 (stereo not drawn) [compound 245] | 20 | 2
13 | C[C@@H](NC(=O)c1nn(C2CCCCC2)c2c1CCCC2)c1ccccc1 [compound 197] | 980 | 800
14 | CC12CCC(C1)C(C)(C)C2NC(=O)Nc1nn(C2CCCCC2)c2c1CCCC2 (stereo not drawn) [compound 205] | 1580 | 70
15 | O=C(NCC(O)C1CCCCC1)c1nn(C2CCCCC2)c2c1CCCC2 (stereo not drawn) [compound 185] | 900 | 120
16 | COc1ccc(C(O)CNC(=O)c2nn(C3CCCCC3)c3c2CCCC3)cc1 (stereo not drawn) [Cpd 241, 1-cyclohexyl-4,5,6,7-tetrahydro-1H-indazole-3-carboxylic acid [2-hydroxy-2-(4-methoxy-phenyl)-ethyl]-amide] | 3400 | 500
17 | O=C(NCC12CC3CC(CC(C3)C1)C2)c1nn(-c2ccc(Cl)cc2Cl)c2c1CCCC2 [compound 141] | 300 | 140
18 | CCOC(=O)C1CCc2nn(Cc3ccccc3)c(C(=O)NC34CC5CC(CC3C5)C4)c2C1 (stereo not drawn) [compound 227] | 2770 | 1150
19 | CC(NC(=O)c1nn(C2CCCCC2)c2c1CCCC2Cl)C12CC3CC(CC(C3)C1)C2 (stereo not drawn) [compound 64] | 410 | 30

Row | SMILES | IC50 (human CB1 receptor) [nM] | IC50 (human CB2 receptor) [nM]
20 | CCOC(=O)[C@@H]1C2CCC(C2)[C@@H]1NC(=O)c1nn(Cc2ccccc2)c2c1CCCC2 (stereo partly drawn) [compound 274] | 18.7 | 1.6
21 | O=C(NCC(=O)C1CCCCC1)c1nn(C2CCCCC2)c2c1CCCC2 [compound 187] | 3690 | 1600
22 | CC12CCC(C1)C(C)(C)C2NC(=O)c1nn(-c2ccc(Cl)cc2)c2c1CCCC2 (stereo not drawn) [compound 12] | 148 | 21.4
23 | CCOC(=O)[C@H]1CCCC[C@@H]1NC(=O)c1c2c(nn1Cc1ccccc1)CCCC2 [compound 271] | 6200 | 2600
24 | CCOC(=O)[C@@H]1CCC[C@@H]1NC(=O)c1nn(C2CCCCC2)c2c1CCCC2Cl (stereo partly drawn) [compound 61] | 2190 | 190
25 | CC[C@@H](NC(=O)c1nn(C2CCCCC2)c2c1CCCC2)c1ccccc1 [compound 204] | 800 | 10
26 | C[C@H](C1CCCCC1)N(C)C(=O)c1nn(C2CCCCC2)c2c1CCCC2 [Cpd 328, 1-cyclohexyl-4,5,6,7-tetrahydro-1H-indazole-3-carboxylic acid [(1R)-1-cyclohexyl-ethyl]-methylamide] | 5100 | 1600
27 | CCOC(=O)C1CCc2c(c(C(=O)NC(C)C34CC5CC(CC(C5)C3)C4)nn2C2CCCCC2)C1 (stereo not drawn) [Cpd 132] | 2900 | 25.5
28 | CC(C)(C)OC(=O)C1CCc2c(c(C(=O)NC3C4CC5CC(C4)CC3C5)nn2C2CCCCC2)C1 (stereo not drawn) [compound 233] | 1600 | 880
29 | O=C(NC12CC3CC(CC(C3)C1)C2)c1nn(-c2ccc(Cl)cc2Cl)c2c1CCCC2 [compound 139] | 160 | 300
30 | CC(NC(=O)c1nn(C2CCCCC2)c2c1CC(C(=O)O)CC2)C12CC3CC(CC(C3)C1)C2 (stereo not drawn) [compound 133] | 12000 | 1340
31 | CCOC(=O)C(Cc1nn(C2CCCCC2)c2c1CCCC2)c1ccccc1OC (stereo not drawn) [Cpd 332, 3-(1-cyclohexyl-4,5,6,7-tetrahydro-1H-indazol-3-yl)-2-(2-methoxy-phenyl)-propionic acid ethyl ester] | 3900 | 1900
32 | O=C(NN1CCCCC1)c1nn(-c2ccc(Cl)cc2Cl)c2c1CCCC2 [compound 287] | 2500 | 2100
33 | O=C(NC1C2CC3CC(C2)CC1C3)c1nn(Cc2ccccc2)c2c1CCCC2 (stereo not drawn) [compound 136] | 0.8 | 0.5
34 | CCOC(=O)C1C2CCC(C2)C1NC(=O)c1nn(Cc2ccc(C)cc2)c2c1CCCC2 (stereo not drawn) [compound 126] | 597 | 593
35 | O=C(CNC(=O)c1nn(C2CCCCC2)c2c1CCCC2)c1ccc(Br)cc1 [compound 177] | 10500 | 2400
36 | CCN(C(=O)c1nn(C2CCCCC2)c2c1CCCC2)[C@H](C)C1CCCCC1 [compound 203] | 590 | 240
37 | O=C(NCC12CC3CC(CC(C3)C1)C2)c1nn(Cc2ccccc2)c2c1CCCC2 [compound 135] | 670 | 20
38 | O=C(NCC1CCCCC1)c1nn(Cc2ccccc2)c2c1CCCC2 [compound 189] | 10 | 10

Row | SMILES | IC50 (human CB1 receptor) [nM] | IC50 (human CB2 receptor) [nM]
39 | CCOC(=O)[C@H]1CCc2c(c(C(=O)NC3C4CC5CC(C4)CC3C5)nn2Cc2ccccc2)C1 (stereo partly drawn) [compound 210] | 335 | 8
40 | COC(=O)NC1CCc2c(c(C(=O)NC3C4CC5CC(C4)CC3C5)nn2C2CCCCC2)C1 (stereo not drawn) [compound 88] | 2400 | 87
41 | CC12CCC(C1)C(C)(C)C2NC(=O)c1nn(Cc2ccccc2)c2c1CCCC2 (stereo not drawn) [Cpd 194, 1-benzyl-4,5,6,7-tetrahydro-1H-indazole-3-carboxylic acid (1,3,3-trimethyl-bicyclo[2.2.1]hept-2-yl)-amide] | 0.1 | 0.2
42 | O=C(NC1CCCCCCC1)c1nn(-c2ccc(F)cc2)c2c1CCCC2 [compound 15] | 241 | 53.8
43 | O=C(NCC12CC3CC(CC(C3)C1)C2)c1nn(-c2ccc(F)cc2)c2c1CCCC2c1ccccc1 (stereo not drawn) [compound 145] | 950 | 1100
44 | O=C(Nc1nn(C2CCCCC2)c2c1CCCC2)C12CC3CC(CC(C3)C1)C2 [compound 179] | 7300 | 700
45 | CCOC(=O)[C@H]1C2CCC(C2)[C@H]1NC(=O)c1nn(C2CCCCC2)c2c1CCCC2O (stereo partly drawn) [Cpd 164, (2S,3R)-3-[(1-cyclohexyl-7-hydroxy-4,5,6,7-tetrahydro-1H-indazole-3-carbonyl)-amino]-bicyclo[2.2.1]heptane-2-carboxylic acid ethyl ester] | 6010 | 490
46 | O=C(NNC1CCCCC1)c1nn(C2CCCCC2)c2c1CCCC2 [compound 31] | 1690 | 195
47 | CC(C)N(C(=O)c1nn(C2CCCCC2)c2c1CCCC2)[C@H](C)C1CCCCC1 [compound 329] | 1700 | 20
48 | O=C(N[C@@H]1CCCC[C@H]1CO)c1nn(C2CCCCC2)c2c1CCCC2 [compound 49] | 150 | 72.8
49 | COC(=O)C(Cc1ccc(O)cc1)NC(=O)c1nn(-c2ccc(OC)cc2)c2c1CCCC2 (stereo not drawn) [compound 5] | 6800 | 291
50 | COC(=O)C(Cc1ccc(OCc2ccccc2)cc1)NC(=O)c1nn(C2CCCCC2)c2c1CCCC2 (stereo not drawn) [compound 81] | 490 | 20
51 | CCOC(=O)C1C2CCC(C2)C1NC(=O)c1c2c(nn1Cc1ccccc1)CCCC2 (stereo not drawn) [compound 42] | 10700 | 640
52 | CC(c1ccccc1)n1nc(C(=O)NC2C3(C)CCC(C3)C2(C)C)c2c1CCCC2 (stereo not drawn) [compound 250] | 70 | 5.6
53 | CC(CC1CCCCC1)NC(=O)c1nn(C2CCCCC2)c2c1CCCC2 (stereo not drawn) [compound 330] | 1900 | 30
54 | CC(c1ccccc1)n1nc(C(=O)NC2C3CC4CC(C3)CC2C4)c2c1CCCC2 (stereo not drawn) [compound 243] | 130 | 4
55 | O=C(NNC1CCCCC1)c1nn(Cc2ccccc2)c2c1CCCC2 [compound 29] | 790 | 115
56 | CCOC(=O)[C@@H]1CCCC[C@@H]1NC(=O)c1c2c(nn1Cc1ccccc1)CCCC2 [compound 270] | 3100 | 1800
57 | CCOC(=O)[C@H]1C2CCC(C2)[C@H]1NC(=O)c1nn(C2CCCCC2)c2c1CCCC2Cl (stereo partly drawn) [compound 63] | 13700 | 3300
